Legend:
Type in all cases: in vivo
rice (Oryza sativa) = experiment: Test B flooded paddy test; conditions: for Plant response rating, Rice: Flood (flooded paddy test), 13 to 15 days
Procedure, shortened: (§1)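 Plants were grown to the 2-leaf stage, then pots were flooded to 3 cm above the soil and compounds were applied directly into the paddy water. That depth was held throughout. After 13 to 15 days in a greenhouse, injury was visually rated against controls on a 0–100 scale.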

[1] = tested on: barnyardgrass (Echinochloa crus-galli); experiment: Test B flooded paddy test; conditions: for Plant response rating, Barnyardgrass: Flood (flooded paddy test), 13 to 15 days
Procedure, shortened: as §1

[2] = tested on: ducksalad (Heteranthera limosa); experiment: Test B flooded paddy test; conditions: for Plant response rating, Ducksalad: Flood (flooded paddy test), 13 to 15 days
Procedure, shortened: as §1

[3] = tested on: umbrella sedge (Cyperus difformis); experiment: Test B flooded paddy test; conditions: for Plant response rating, Sedge, Umbrella: Flood (flooded paddy test), 13 to 15 days
Procedure, shortened: as §1

[4] = tested on: large crabgrass (Digitaria sanguinalis); experiment: Test A pre-/postemergence plant response
Procedure, shortened: (§2)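 Formulated test chemicals (non-phytotoxic solvent, surfactant) were sprayed onto soil right after planting and simultaneously onto young plants at one to two leaves, 2 to 10 cm tall. Plants stayed in the greenhouse about ten days; injury was then visually scored against untreated controls, from 0 (no effect) to 100 (complete control).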

[5] = tested on: giant foxtail (Setaria faberii); experiment: Test A pre-/postemergence plant response
Procedure, shortened: as §2

[6] = tested on: morningglory (Ipomoea spp.); experiment: Test A pre-/postemergence plant response
Procedure, shortened: as §2

[7] = tested on: wheat (Triticum aestivum); experiment: Test A pre-/postemergence plant response
Procedure, shortened: as §2

corn (Zea mays) = experiment: Test A pre-/postemergence plant response
Procedure, shortened: as §2

[8] = tested on: barnyardgrass (Echinochloa crus-galli); experiment: Test A pre-/postemergence plant response
Procedure, shortened: as §2

[9] = tested on: velvetleaf (Abutilon theophrasti); experiment: Test A pre-/postemergence plant response; conditions: for Velvetleaf plant response rating: visual injury, 0 to 100 scale (0 no effect, 100 complete control)
Procedure, shortened: as §2

[10] = tested on: pigweed (Amaranthus retroflexus); experiment: Test A pre-/postemergence plant response; conditions: for Pigweed plant response rating: visual injury, 0 to 100 scale (0 no effect, 100 complete control)
Procedure, shortened: as §2

[11] = 250 g ai/ha, flooded paddy test, visual rating on 0 to 100 scale (0 no effect, 100 complete control) after 13 to 15 days
[12] = 62 g ai/ha, scale of 0 to 100 where 0 is no effect and 100 is complete control
[13] = 125 g ai/ha, scale 0 to 100, 0 is no effect, 100 is complete control
[14] = Flood, 31 g ai/ha, scale 0 to 100 (0 no effect, 100 complete control)
[15] = Postemergence, 125 g ai/ha, 0 to 100 scale where 0 is no effect and 100 is complete control
[16] = Postemergence, 500 g ai/ha, 0 to 100 scale, 0 = no effect, 100 = complete control, approx. ten days
[17] = Preemergence, 125 g ai/ha, 0 to 100 scale, 0 = no effect, 100 = complete control
[18] = Preemergence, 500 g ai/ha, visual injury, 0 to 100 scale (0 no effect, 100 complete control), approx. ten days
[19] = Postemergence, 500 g ai/ha, visual injury, 0 to 100 scale (0 no effect, 100 complete control), approx. ten days
[20] = Preemergence, 500 g ai/ha, 0 to 100 scale, 0 = no effect, 100 = complete control
[21] = Postemergence, 500 g ai/ha, approx. ten days

With `COCCn1c(-c2ccccc2)ncc(C(=O)C2=C(O)CCCC2=O)c1=O` [Compound 85] the “Plant response rating, Flood, Rice” value (rice (Oryza sativa); [11]) was 20, the “Plant response rating, Rice” value (rice (Oryza sativa); [12]) was 0 and the “Plant response rating, Rice” value (rice (Oryza sativa); [13]) was 15. The “Rice plant response rating” value (rice (Oryza sativa); [14]) was 0, the “Plant response rating, Flood, Barnyardgrass” value [1, 11] was 65 and the “Plant response rating, Barnyardgrass” value [1, 12] was 25. The “Plant response rating, Barnyardgrass” value [1, 13] was 55, the “Barnyardgrass plant response rating” value [1, 14] was 25 and the “Plant response rating, Flood, Ducksalad” value [2, 11] was 65. The “Plant response rating, Ducksalad” value [2, 12] was 50, the “Plant response rating, Ducksalad” value [2, 13] was 60 and the “Ducksalad plant response rating” value [2, 14] was 40. The “Plant response rating, Flood, Sedge, Umbrella” value [3, 11] was 80, the “Plant response rating, Sedge, Umbrella” value [3, 12] was 75 and the “Plant response rating, Sedge, Umbrella” value [3, 13] was 80. The “Sedge, Umbrella plant response rating” value [3, 14] was 50, the “Plant response rating, Crabgrass, Large” value [4, 15] was 90 and the “Plant response rating, Crabgrass, Large” value [4, 16] was 90. The “Plant response rating, Crabgrass, Large” value [4, 17] was 100, the “Plant response rating, Crabgrass, Large” value [4, 18] was 100 and the “Plant response rating, Foxtail, Giant” value [5, 15] was 70. The “Plant response rating, Foxtail, Giant” value [5, 16] was 90, the “Plant response rating, Foxtail, Giant” value [5, 18] was 90 and the “Plant response rating, Morningglory” value [6, 15] was 100. For the same compound, the “Plant response rating, Morningglory” value [6, 16] was 100, the “Plant response rating, Morningglory” value [6, 17] was 50 and the “Plant response rating, Morningglory” value [6, 18] was 80. For the same compound, the “Plant response rating, Wheat” value [7, 15] was 0, the “Plant response rating, Wheat” value [7, 16] was 40 and the “Plant response rating, Wheat” value [7, 17] was 0. The “Plant response rating, Wheat” value [7, 18] was 40, the “Plant response rating, Corn” value (corn (Zea mays); [15]) was 10 and the “Plant response rating, Corn” value (corn (Zea mays); [16]) was 80. For the same compound, the “Plant response rating, Corn” value (corn (Zea mays); [17]) was 0, the “Plant response rating, Corn” value (corn (Zea mays); [18]) was 10 and the “Plant response rating, Barnyardgrass” value [8, 15] was 90. For the same compound, the “Plant response rating, Barnyardgrass” value [8, 16] was 90, the “Plant response rating, Barnyardgrass” value [8, 17] was 50 and the “Plant response rating, Barnyardgrass” value [8, 18] was 100. For the same compound, the “Plant response rating, Velvetleaf” value [9, 15] was 100, the “Plant response rating, Velvetleaf” value [9, 16] was 100 and the “Plant response rating, Velvetleaf” value [9, 17] was 70. The “Plant response rating, Pigweed” value [10, 15] was 100 and the “Plant response rating, Pigweed” value [10, 16] was 100.

With `Cc1ccccc1-n1c(-c2cc(F)cc(F)c2)ncc(C(=O)C2=C(O)CCCC2=O)c1=O` [Compound 159] the “Plant response rating, Crabgrass, Large” value [4, 15] was 90, the “Crabgrass, Large plant response rating” value [4, 19] was 90 and the “Plant response rating, Crabgrass, Large” value [4, 17] was 80. For the same compound, the “Plant response rating, Crabgrass, Large” value [4, 20] was 100, the “Plant response rating, Foxtail, Giant” value [5, 15] was 90 and the “Foxtail, Giant plant response rating” value [5, 19] was 100. For the same compound, the “Plant response rating, Foxtail, Giant” value [5, 17] was 60, the “Plant response rating, Foxtail, Giant” value [5, 20] was 90 and the “Plant response rating, Morningglory” value [6, 15] was 100. The “Morningglory plant response rating” value [6, 19] was 100, the “Plant response rating, Morningglory” value [6, 17] was 0 and the “Plant response rating, Morningglory” value [6, 20] was 50. The “Plant response rating, Wheat” value [7, 15] was 10, the “Wheat plant response rating” value [7, 19] was 60 and the “Plant response rating, Wheat” value [7, 17] was 0. The “Plant response rating, Wheat” value [7, 20] was 20, the “Plant response rating, Corn” value (corn (Zea mays); [15]) was 0 and the “Corn plant response rating” value (corn (Zea mays); [19]) was 70. The “Plant response rating, Corn” value (corn (Zea mays); [17]) was 0, the “Plant response rating, Corn” value (corn (Zea mays); [20]) was 40 and the “Plant response rating, Barnyardgrass” value [8, 15] was 90. The “Barnyardgrass plant response rating” value [8, 19] was 100, the “Plant response rating, Barnyardgrass” value [8, 17] was 30 and the “Plant response rating, Barnyardgrass” value [8, 20] was 90. For the same compound, the “Plant response rating, Velvetleaf” value [9, 15] was 100, the “Velvetleaf plant response rating” value [9, 21] was 100 and the “Plant response rating, Velvetleaf” value [9, 17] was 70. The “Plant response rating, Velvetleaf” value [9, 20] was 100, the “Plant response rating, Pigweed” value [10, 15] was 100 and the “Pigweed plant response rating” value [10, 21] was 100. For the same compound, the “Plant response rating, Pigweed” value [10, 17] was 100 and the “Plant response rating, Pigweed” value [10, 20] was 100.

For `CC1(C)CC(=O)C(C(=O)c2cnc(-c3ccccc3)n(-c3ccccc3)c2=O)=C(O)C1` [Compound 225], the “Plant response rating, Crabgrass, Large” value [4, 15] was 90, the “Crabgrass, Large plant response rating” value [4, 19] was 100 and the “Plant response rating, Crabgrass, Large” value [4, 17] was 60. For the same compound, the “Plant response rating, Crabgrass, Large” value [4, 20] was 100, the “Plant response rating, Foxtail, Giant” value [5, 15] was 70 and the “Foxtail, Giant plant response rating” value [5, 19] was 90. The “Plant response rating, Foxtail, Giant” value [5, 17] was 40, the “Plant response rating, Foxtail, Giant” value [5, 20] was 80 and the “Plant response rating, Morningglory” value [6, 15] was 100. For the same compound, the “Morningglory plant response rating” value [6, 19] was 100, the “Plant response rating, Morningglory” value [6, 17] was 30 and the “Plant response rating, Morningglory” value [6, 20] was 80. For the same compound, the “Plant response rating, Wheat” value [7, 15] was 0, the “Wheat plant response rating” value [7, 19] was 40 and the “Plant response rating, Wheat” value [7, 17] was 0. The “Plant response rating, Wheat” value [7, 20] was 30, the “Plant response rating, Corn” value (corn (Zea mays); [15]) was 10 and the “Corn plant response rating” value (corn (Zea mays); [19]) was 50. The “Plant response rating, Corn” value (corn (Zea mays); [17]) was 0, the “Plant response rating, Corn” value (corn (Zea mays); [20]) was 20 and the “Plant response rating, Barnyardgrass” value [8, 15] was 90. The “Barnyardgrass plant response rating” value [8, 19] was 100, the “Plant response rating, Barnyardgrass” value [8, 17] was 20 and the “Plant response rating, Barnyardgrass” value [8, 20] was 90. For the same compound, the “Plant response rating, Velvetleaf” value [9, 15] was 100, the “Velvetleaf plant response rating” value [9, 21] was 100 and the “Plant response rating, Velvetleaf” value [9, 17] was 80. The “Plant response rating, Velvetleaf” value [9, 20] was 100, the “Plant response rating, Pigweed” value [10, 15] was 100 and the “Pigweed plant response rating” value [10, 21] was 100. For the same compound, the “Plant response rating, Pigweed” value [10, 17] was 90 and the “Plant response rating, Pigweed” value [10, 20] was 100.
